# Assay results from US8722849B2, “Polypeptides” (Novo Nordisk A/S, priority 2011, dated 2014).
# Where two headings read alike, the source gives them in different places. Starred links: 1 amine or outer side, 2 acyl side, 3 side chain; linkers in the order of their positions; H or OH if unused. Positions of bridges follow the written chain, without caps; N, C: chain ends. Residues, ends and D or L forms follow the SMILES beside them. *: point of attachment. C20 diacid = O=C(O)CCCCCCCCCCCCCCCCCCC(=O)*; C18 diacid = O=C(O)CCCCCCCCCCCCCCCCC(=O)*; γGlu = O=C(O)[C@H](CCC(=O)[*:2])N[*:1]
# What was measured:
# [1] = biological target: T1, human amylin receptor (amylin 3(a) receptor: human calcitonin receptor + RAMP-3) (Homo sapiens, UniProt O60896+P30988); assay: Assay (II)a functional CRE-luciferase assay, human amylin receptor; format: cell-based; settings: Table 2; BHK amylin 3(a)-receptor/CRE-luc cells
# T1 construct: expressed in transfected cells; host or cells: BHK570
# T1 sequence (P30988 25-474): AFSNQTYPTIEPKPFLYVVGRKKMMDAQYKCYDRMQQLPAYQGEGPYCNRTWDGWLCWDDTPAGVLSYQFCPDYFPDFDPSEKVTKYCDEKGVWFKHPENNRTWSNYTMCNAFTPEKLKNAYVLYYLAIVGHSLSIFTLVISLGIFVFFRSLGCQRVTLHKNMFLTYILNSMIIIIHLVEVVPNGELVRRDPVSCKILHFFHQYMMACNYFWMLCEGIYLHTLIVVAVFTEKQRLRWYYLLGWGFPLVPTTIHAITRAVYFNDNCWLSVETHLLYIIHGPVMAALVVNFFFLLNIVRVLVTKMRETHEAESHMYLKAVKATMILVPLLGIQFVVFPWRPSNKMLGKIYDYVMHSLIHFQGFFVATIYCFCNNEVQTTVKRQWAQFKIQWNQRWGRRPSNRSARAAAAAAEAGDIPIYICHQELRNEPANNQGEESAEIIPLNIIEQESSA
# T1 sequence (O60896 24-148 partner): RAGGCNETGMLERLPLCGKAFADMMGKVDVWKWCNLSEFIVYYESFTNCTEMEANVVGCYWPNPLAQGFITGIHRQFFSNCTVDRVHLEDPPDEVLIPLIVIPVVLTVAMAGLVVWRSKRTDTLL
# [2] = biological target: T2, human calcitonin receptor (Homo sapiens, UniProt P30988); assay: Assay (II)a functional CRE-luciferase assay, human calcitonin receptor; format: cell-based; settings: Table 7; human calcitonin (CTa) receptor
# T2 construct: expressed in transfected cells; host or cells: BHK570
# T2 sequence (P30988 25-474): T1 sequence (P30988 25-474)
# [3] = Assay (III) ThT fibrillation assay for physical stability; format: physicochemical
# Method in brief: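 Freshly prepared formulations, pH-adjusted, with 1 μM ThT; four or eight replicates incubated at 37 °C under 960 rpm orbital shaking. Fluorescence (ex 444/em 485 nm) read every 20 min; […]. Peptide concentration measured by RP-HPLC before and after the run.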
# [4] = Assay (IV) determination of solubility; format: physicochemical
# Method in brief: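 Eight 100 mM buffers (glycylglycine pH 3.0–5.0, bistrispropane pH 6.0–8.0) each received an equal volume of polypeptide dissolved in water at ~500 nmol/ml. Soluble polypeptide was measured by HPLC following 18 hours at room temperature and centrifugation.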
# [5] = bistrispropane buffer, pH 6, pH 6.0, read-out: Solubility pH 6.0
# [6] = bistrispropane buffer, pH 6.5, pH 6.5, read-out: Solubility pH 6.5
# [7] = bistrispropane buffer, pH 7, pH 7.0, 18 hours at room temperature, Table 3, read-out: Solubility pH 7.0
# [8] = bistrispropane buffer, pH 7, pH 7.0, read-out: Solubility pH 7.0
# [9] = bistrispropane buffer, pH 7.5, pH 7.5, read-out: Solubility pH 7.5
# [10] = bistrispropane buffer, pH 8, pH 8.0, read-out: Solubility pH 8.0
# [11] = glycylglycine buffer, pH 3, pH 3.0, read-out: Solubility pH 3.0
# [12] = glycylglycine buffer, pH 4, pH 4.0, 18 hours at room temperature, Table 2, read-out: Solubility pH 4.0
# [13] = glycylglycine buffer, pH 4, pH 4.0, read-out: Solubility pH 4.0
# [14] = glycylglycine buffer, pH 5, pH 5.0, read-out: Solubility pH 5.0
EC50 [1] [nM],EC50 [2] [nM],ThT pH 4.0 lag time (h) ([3]; ThT fibrillation assay),"solubility at 18 h [4, 5] [µM]","solubility at 18 h [4, 6] [µM]","solubility at 18 h [4, 7] [µM]","solubility at 18 h [4, 8] [µM]","solubility at 18 h [4, 9] [µM]","solubility at 18 h [4, 10] [µM]","solubility at 18 h [4, 11] [µM]","solubility at 18 h [4, 12] [µM]","solubility at 18 h [4, 13] [µM]","solubility at 18 h [4, 14] [µM]",SMILES,also measured
0.061,0.6,28.7,> 200,> 200,> 200,> 200,> 200,> 200,> 200,> 200,> 200,> 200,"CC[C@H](C)[C@H](NC(=O)[C@@H]1CCCN1C(=O)CNC(=O)[C@H](Cc1ccccc1)NC(=O)[C@H](CC(N)=O)NC(=O)[C@H](CC(N)=O)NC(=O)[C@H](CO)NC(=O)[C@H](CO)NC(=O)[C@H](Cc1c[nH]cn1)NC(=O)[C@H](CCCNC(=N)N)NC(=O)[C@H](CC(C)C)NC(=O)[C@H](Cc1ccccc1)NC(=O)[C@H](CCC(=O)O)NC(=O)[C@H](C)NC(=O)[C@H](CC(C)C)NC(=O)[C@H](CCCNC(=N)N)NC(=O)[C@H](CCC(N)=O)NC(=O)[C@@H](NC(=O)[C@H](C)NC(=O)[C@@H]1CSSC[C@H](NC(=O)[C@H](CCCCN)NC(=O)CC[C@H](NC(=O)CCCCCCCCCCCCCCCCC(=O)O)C(=O)O)C(=O)N[C@@H](CC(N)=O)C(=O)N[C@@H]([C@@H](C)O)C(=O)N[C@@H](C)C(=O)N[C@@H]([C@@H](C)O)C(=O)N1)[C@@H](C)O)C(=O)N[C@@H](CC(C)C)C(=O)N1CCC[C@H]1C(=O)N1CCC[C@H]1C(=O)N[C@H](C(=O)N[C@@H](CC(N)=O)C(=O)N[C@H](C(=O)NCC(=O)N[C@@H](CO)C(=O)N[C@@H](CC(N)=O)C(=O)N[C@H](C(=O)N[C@@H](Cc1ccc(O)cc1)C(N)=O)[C@@H](C)O)C(C)C)[C@@H](C)O [Example 51, N-alpha-[(S)-4-Carboxy-4-(17-carboxyheptadecanoylamino)butyryl]-[Glu14,Arg17]-pramlintide] ({C18 diacid-γGlu}-KCNTATCATQRLAEFLRHSSNNFGPILPPTNVGSNTY-NH2; disulfide 2-7 (inferred); C-terminus assumed)","ThT pH 4.0 lag time ([3]; Table 8): 28.7 h; ThT pH 4.0 lag time ([3]; ThT fibrillation assay): 28.7 h; solubility at 18 h ([4]; bistrispropane buffer, pH 7, pH 7.0, Table 8, read-out: Solubility pH 7.0): > 200 µM"
0.102,0.169,10,> 200,> 200,> 200,> 200,> 200,> 200,> 200,> 200,> 200,> 200,"CC[C@H](C)[C@H](NC(=O)[C@@H]1CCCN1C(=O)CNC(=O)[C@H](Cc1ccccc1)NC(=O)[C@H](CC(N)=O)NC(=O)[C@H](CC(N)=O)NC(=O)[C@H](CO)NC(=O)[C@H](CO)NC(=O)[C@H](Cc1c[nH]cn1)NC(=O)[C@H](Cc1c[nH]cn1)NC(=O)[C@H](CC(C)C)NC(=O)[C@H](Cc1ccccc1)NC(=O)[C@H](CCC(=O)O)NC(=O)[C@H](C)NC(=O)[C@H](CC(C)C)NC(=O)[C@H](CCCNC(=N)N)NC(=O)[C@H](CCC(N)=O)NC(=O)[C@@H](NC(=O)[C@H](C)NC(=O)[C@@H]1CSSC[C@H](NC(=O)[C@H](CCCCN)NC(=O)[C@H](CCC(=O)O)NC(=O)CC[C@H](NC(=O)CCCCCCCCCCCCCCCCC(=O)O)C(=O)O)C(=O)N[C@@H](CC(N)=O)C(=O)N[C@@H]([C@@H](C)O)C(=O)N[C@@H](C)C(=O)N[C@@H]([C@@H](C)O)C(=O)N1)[C@@H](C)O)C(=O)N[C@@H](CC(C)C)C(=O)N1CCC[C@H]1C(=O)N1CCC[C@H]1C(=O)N[C@H](C(=O)N[C@@H](CC(N)=O)C(=O)N[C@H](C(=O)NCC(=O)N[C@@H](CO)C(=O)N[C@@H](Cc1c[nH]cn1)C(=O)N[C@H](C(=O)N[C@@H](Cc1ccc(O)cc1)C(N)=O)[C@@H](C)O)C(C)C)[C@@H](C)O [Example 60, N-alpha-[(S)-4-Carboxy-4-(17-carboxyheptadecanoylamino)butyryl]-Glu-[Glu14,His17,His35]-pramlintide] ({C18 diacid-γGlu}-EKCNTATCATQRLAEFLHHSSNNFGPILPPTNVGSHTY-NH2; disulfide 3-8)",–
0.353,1.65,4.4,–,–,–,–,–,–,–,–,–,–,"CC[C@H](C)[C@H](NC(=O)[C@@H]1CCCN1C(=O)CNC(=O)[C@H](Cc1ccccc1)NC(=O)[C@H](CC(N)=O)NC(=O)[C@H](CC(N)=O)NC(=O)[C@H](CO)NC(=O)[C@H](CO)NC(=O)[C@H](CCCNC(=N)N)NC(=O)[C@H](Cc1c[nH]cn1)NC(=O)[C@H](CC(C)C)NC(=O)[C@H](Cc1ccccc1)NC(=O)[C@H](CCC(=O)O)NC(=O)[C@H](C)NC(=O)[C@H](CC(C)C)NC(=O)[C@H](CCCNC(=N)N)NC(=O)[C@H](CCC(N)=O)NC(=O)[C@@H](NC(=O)[C@H](C)NC(=O)[C@@H]1CSSC[C@H](NC(=O)[C@H](CCC(=O)O)NC(=O)CC[C@H](NC(=O)CCCCCCCCCCCCCCCCCCC(=O)O)C(=O)O)C(=O)N[C@@H](CC(N)=O)C(=O)N[C@@H]([C@@H](C)O)C(=O)N[C@@H](C)C(=O)N[C@@H]([C@@H](C)O)C(=O)N1)[C@@H](C)O)C(=O)N[C@@H](CC(C)C)C(=O)N1CCC[C@H]1C(=O)N1CCC[C@H]1C(=O)N[C@H](C(=O)N[C@@H](CC(N)=O)C(=O)N[C@H](C(=O)NCC(=O)N[C@@H](CO)C(=O)N[C@@H](CC(N)=O)C(=O)N[C@H](C(=O)N[C@@H](Cc1ccc(O)cc1)C(N)=O)[C@@H](C)O)C(C)C)[C@@H](C)O [Example 5, N-alpha-[(S)-4-Carboxy-4-(19-carboxynonadecanoylamino)butyryl]-[Glu1,Glu14,His17,Arg18]-pramlintide] ({C20 diacid-γGlu}-ECNTATCATQRLAEFLHRSSNNFGPILPPTNVGSNTY-NH2; disulfide 2-7 (inferred); C-terminus assumed)","solubility at 18 h ([4]; pH 3.0, read-out: Solubility pH 3.0): >200 µM; Solubility pH 4.0 (μM) ([4]; pH 4.0, 18 hours at room temperature, Table 2): >200 μM; solubility at 18 h ([4]; pH 4.0, read-out: Solubility pH 4.0): >200 µM; solubility at 18 h ([4]; pH 5.0, read-out: Solubility pH 5.0): 62 µM; solubility at 18 h ([4]; pH 6.0, read-out: Solubility pH 6.0): 164 µM; solubility at 18 h ([4]; pH 6.5, read-out: Solubility pH 6.5): 181 µM; Solubility pH 7.0 (μM) ([4]; pH 7.0, 18 hours at room temperature, Table 3): >200 μM; solubility at 18 h ([4]; pH 7.0, read-out: Solubility pH 7.0): >200 µM; solubility at 18 h ([4]; pH 7.5, read-out: Solubility pH 7.5): >200 µM; solubility at 18 h ([4]; pH 8.0, read-out: Solubility pH 8.0): >200 µM"
0.107,0.0585,23.6,> 200,> 200,> 200,> 200,> 200,> 200,> 200,> 200,> 200,> 200,"CC[C@H](C)[C@H](NC(=O)[C@@H]1CCCN1C(=O)CNC(=O)[C@H](Cc1ccccc1)NC(=O)[C@H](CC(N)=O)NC(=O)[C@H](CCC(N)=O)NC(=O)[C@H](CO)NC(=O)[C@H](CO)NC(=O)[C@H](Cc1c[nH]cn1)NC(=O)[C@@H](NC(=O)[C@H](CC(C)C)NC(=O)[C@H](Cc1ccccc1)NC(=O)[C@H](CCC(=O)O)NC(=O)[C@H](C)NC(=O)[C@H](CC(C)C)NC(=O)[C@H](CCCNC(=N)N)NC(=O)[C@H](CCC(N)=O)NC(=O)[C@@H](NC(=O)[C@H](C)NC(=O)[C@@H]1CSSC[C@H](NC(=O)[C@H](CCCCN)NC(=O)CC[C@H](NC(=O)CCCCCCCCCCCCCCCCCCC(=O)O)C(=O)O)C(=O)N[C@@H](CC(N)=O)C(=O)N[C@@H]([C@@H](C)O)C(=O)N[C@@H](C)C(=O)N[C@@H]([C@@H](C)O)C(=O)N1)[C@@H](C)O)C(C)C)C(=O)N[C@@H](CC(C)C)C(=O)N1CCC[C@H]1C(=O)N1CCC[C@H]1C(=O)N[C@H](C(=O)N[C@@H](CC(N)=O)C(=O)N[C@H](C(=O)NCC(=O)N[C@@H](CO)C(=O)N[C@@H](CCC(N)=O)C(=O)N[C@H](C(=O)N1CCC[C@H]1C(N)=O)[C@@H](C)O)C(C)C)[C@@H](C)O [Example 139, N-alpha-[(S)-4-Carboxy-4-(19-carboxynonadecanoylamino)butyryl]-[Glu14,Gln21,Gln35,Pro37]-pramlintide] ({C20 diacid-γGlu}-KCNTATCATQRLAEFLVHSSQNFGPILPPTNVGSQTP-NH2; disulfide 2-7 (inferred))",–
